{"source": "patent US20110160280A1", "about": "“CANCER-RELATED GENES, CDCA5, EPHA7, STK31 AND WDHD1” (Oncotherapy Science, Inc., priority 2007, published 2011)", "key": {"NCI-H520 cells": {"system": "NCI-H520 cells", "experiment": "RNA interference assay (oligo based): colony formation and MTT assays", "type": "cell-based, human", "details": "7 days after transfection", "experimental": "(§1) Small interfering RNA (siRNA) duplexes (Dharmacon, Inc., Lafayette, Colo.) (600 pM) were transfected into lung-cancer cell lines LC319 and A549 for CDCA5; NCI-H520 and SBC-5 for EPHA7; LC319 for WDHD1, and esophageal cancer cell line TE9 for WDHD1 using 30 μl of Lipofectamine 2000 (Invitrogen, Carlsbad, Calif.) following the manufacturer's protocol. The transfected cells were cultured for 7 days, and the number of colonies was counted by Giemsa staining, and viability of cells was evaluated by 3-(4,5-dimethylthiazol-2-yl)-2,5-diphenyltetrazolium bromide (MTT) assay (cell counting kit-8 solution; Dojindo Laboratories, Kumanoto, Japan), at 7 days after transfection. To confirm suppression of gene expression, semiquantitative RT-PCR was carried out with synthesized primers described above."}, "SBC-5 cells": {"system": "SBC-5 cells", "experiment": "RNA interference assay (oligo based): colony formation and MTT assays", "type": "cell-based, human", "details": "7 days after transfection", "experimental": "as §1"}, "EPHA7 [1]": {"system": "EPHA7", "experiment": "RNA interference assay: EPHA7 expression by semiquantitative RT-PCR", "type": "cell-based, human", "details": "NCI-H520 and SBC-5 cells; versus control siRNAs (LUC, SCR)", "experimental": "(§2) Total RNA was extracted from cultured cells using Trizol reagent (Life Technologies, Inc. Gaithersburg, Md.) according to the manufacturer's protocol. Extracted RNAs were treated with DNase I (Nippon Gene, Tokyo, Japan) and reversely-transcribed using oligo (dT) primer and SuperScript II. The primer sets for amplification were as follows:\nas §1"}, "WDHD1": {"system": "WDHD1", "experiment": "RNA interference assay: WDHD1 knockdown by RT-PCR", "type": "cell-based, human", "details": "A549, LC319 and TE9 cells", "experimental": "as §2, §1"}, "CDCA5 [2]": {"system": "CDCA5", "experiment": "RNA interference assay: CDCA5 expression by semiquantitative RT-PCR", "type": "cell-based, human", "details": "A549 and LC319 cells; compared with control siRNA (si-LUC and si-CNT)", "experimental": "as §2, §1"}, "LC319 cells": {"system": "LC319 cells", "experiment": "RNA interference assay (vector based): colony formation and MTT assays", "type": "cell-based, human", "details": "P<0.001; 7 days with G418", "experimental": "(§3) The present inventors had established previously a vector-based RNAi system, psiH1BX3.0, which was designed to synthesize small interfering RNAs (siRNA) in mammalian cells (Suzuki C, et al., Cancer Res. 2003 Nov. 1; 63(21): 7038-41). Ten micrograms of siRNA expression vector were transfected using 30 μL Lipofectamine 2000 (Invitrogen) into lung cancer cell lines, LC319 and NCI-H2170. The transfected cells were cultured for 7 days in the presence of appropriate concentrations of geneticin (G418), and the number of colonies was counted by Giemsa staining, and viability of cells was evaluated by 3-(4,5-dimethylthiazol-2-yl)-2,5-diphenyltetrazolium bromide (MTT) assay (cell counting kit-8 solution; Dojindo, Kumamoto, Japan), at 7 days after the G418 treatment. To confirm suppression of STK31 protein expression, Western blotting was carried out with affinity-purified polyclonal antibody to STK31 according to the standard protocol. The target sequences of the synthetic oligonucleotides for RNAi were as follows: […]"}, "STK31": {"system": "STK31", "experiment": "RNA interference assay (vector based): STK31 knockdown by RT-PCR", "type": "cell-based, human", "details": "LC319 cells; controls si-EGFP and si-LUC", "experimental": "as §2, §3"}, "EPHA7 [3]": {"target": "T1, EPHA7 (Homo sapiens, UniProt Q15375)", "T1 construct": "in vitro kinase assay using active recombinant proteins of cytoplasmic EPHA7, MET, EGFR; purchased Carnabioscience, Kobe, Japan", "T1 sequence (Q15375 577-998 limits assumed)": "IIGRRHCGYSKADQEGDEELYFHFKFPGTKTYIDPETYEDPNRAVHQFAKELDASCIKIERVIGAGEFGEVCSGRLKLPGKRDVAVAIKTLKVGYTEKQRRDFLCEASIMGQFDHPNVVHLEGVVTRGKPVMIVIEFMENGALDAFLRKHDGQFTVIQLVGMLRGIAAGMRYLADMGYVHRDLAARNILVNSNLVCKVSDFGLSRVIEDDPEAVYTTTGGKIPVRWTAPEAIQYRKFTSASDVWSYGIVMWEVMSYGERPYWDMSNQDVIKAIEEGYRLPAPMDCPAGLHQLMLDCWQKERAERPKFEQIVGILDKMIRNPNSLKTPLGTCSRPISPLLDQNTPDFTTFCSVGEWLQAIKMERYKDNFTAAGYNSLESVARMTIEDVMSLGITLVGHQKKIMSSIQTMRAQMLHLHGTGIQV", "experiment": "In vitro EPHA7 kinase assay: EPHA7 autophosphorylation", "type": "biochemical", "details": "at the minimum concentration inhibiting EGFR or MET autophosphorylation (assay used 1 mM AG1478, 12.5 μM SU11274)", "experimental": "Active recombinant EPHA7 (Carnabioscience, Kobe, Japan), EGFR (Millipore, Billerica, Mass.), MET (Millipore), EGFR inhibitor AG1478 (EMD), and MET inhibitor SU11274 were commercially purchased. We constructed plasmids expressing partial fragments of EGFR (#1: codons 692-891, #2: codons 889-1045, #3: codons 1046-1186) that contained GST-tagged epitopes at their N-terminals were prepared using pGEX vector (GE Healthcare Bio-sciences). The recombinant peptides were expressed in Escherichia coli, BL21 codon-plus strain (Stratagene, La Jolla, Calif.), and purified using TALON resin (BD Biosciences Clontech) according to the supplier's protocol. The purified proteins were extracted on an SDS-PAGE gel. […] ATP (GE Healthcare Bio-sciences). After incubation at 30 degrees C. for 30 minutes the reactions were terminated by addition of SDS sample buffer. After boiling, the protein samples were electrophoresed on 5% to 15% gradient gel (Bio-Rad), and then signals were visualized by Molecular imager FX (Bio-Rad). In EPHA7 kinase assay using MET as substrate, we adopted the same protocol as above mentioned EPHA7-EGFR kinase reaction, using 50 ng of MET and 12.5 μM of SU11274 (MET inhibitor; see above), instead of EGFR and AG1478. […] ATP, and detected phosphorylated proteins using anti-pan phospho-tyrosine antibody (Invitrogen)."}, "CDCA5 [4]": {"system": "CDCA5", "experiment": "CDC2-dependent phosphorylation of CDCA5 in mitosis, western blotting", "type": "cell-based", "experimental": "To determine whether endogenous CDCA5 phosphorylation in mitosis was CDC2-dependent, we further treated the lung cancer cells at 5 hours after release from G1/S phase with nocodazole alone or both nocodazole and CDC2 inhibitor CGP74514A, and measured the status of CDCA5 phosphorylation by western blotting. Mitotic cells treated with nocodazole alone gradually expressed phosphorylated CDCA5 (shifted bands) (FIG. 19B)."}, "ERK": {"system": "ERK", "details": "serum-starved Hela cells, EGF stimulation with 10 μM U0126", "experimental": "(§4) Cultured A549 and LC319 lung cancer cells as well as cervical squamous cell carcinoma Hela cells were synchronized in G1/S phase by 2 μg/ml aphidilcoline for 16 hours incubation. For mitosis synchronization, the cells were released at 0 hour from G1/S phase. Nocodazole was added at 5 hours to prevent mitotic exit. At the point, CDC2 inhibitors or PBS were added to the cell cultures. For the EGF stimulation assay, Hela cells were cultured in FBS free medium for 20 hours. Then, the cells were stimulated by […] EGF for 30 min with or without 10 μM MEK inhibitor U0126 (Promega)"}, "CDCA5 [5]": {"system": "CDCA5", "experimental": "as §4"}, "NSCLC": {"system": "NSCLC", "details": "cited from earlier work"}}, "data": [{"compound": "5′-AAAAGAGAUGUUGCAGUA-3′ [si-EPHA7-#1]", "values": [{"measurement": "number of colonies and viable cells (MTT), NCI-H520 cells, siRNA against EPHA7", "setting": "NCI-H520 cells", "result": "slight decreases in colony numbers and cell viability"}, {"measurement": "number of colonies and viable cells (MTT), SBC-5 cells, siRNA against EPHA7", "setting": "SBC-5 cells", "result": "slight decreases in colony numbers and cell viability"}, {"measurement": "EPHA7 mRNA levels / EPHA7 expression", "setting": "EPHA7 [1]", "result": "weak reduction of EPHA7 expression"}]}, {"compound": "5′-GAUCAGACAUGUGCUAUUA UU-3′ (GAUCAGACAUGUGCUAUUAUU; listed as RNA, chemistry not given here) [si-WDHD1-#1]", "values": [{"measurement": "WDHD1 knockdown effect (RT-PCR)", "setting": "WDHD1", "result": "knockdown effect was confirmed"}]}, {"compound": "5′-GCAGUUUGAUCUCCUGGUUU-3′ [si-CDCA5-#1]", "values": [{"measurement": "expression of CDCA5", "setting": "CDCA5 [2]", "result": "significantly suppressed expression of CDCA5"}]}, {"compound": "5′-GCCAGAGACUUGGAAAUGU UU-3′ [si-CDCA5-#2]", "values": [{"measurement": "expression of CDCA5", "setting": "CDCA5 [2]", "result": "significantly suppressed expression of CDCA5"}]}, {"compound": "5′-GGAGATAGCTCTGGTTGAT-3′ [si-STK31-#1]", "values": [{"measurement": "number of LC319 cells (MTT and colony-formation assays), siRNA against STK31", "setting": "LC319 cells", "result": "drastic reduction in the number of cells"}, {"measurement": "STK31 knockdown effect (RT-PCR)", "setting": "STK31", "result": "knockdown effect was confirmed"}]}, {"compound": "5′-GGGCTATTCTGTGGATGTT-3′ [si-STK31-#2]", "values": [{"measurement": "number of LC319 cells (MTT and colony-formation assays), siRNA against STK31", "setting": "LC319 cells", "result": "drastic reduction in the number of cells"}, {"measurement": "STK31 knockdown effect (RT-PCR)", "setting": "STK31", "result": "knockdown effect was confirmed"}]}, {"compound": "5′-UAGCAAAGCUGACCAAGAA-3′ [si-EPHA7-#2]", "values": [{"measurement": "number of colonies and viable cells (MTT), NCI-H520 cells, siRNA against EPHA7", "setting": "NCI-H520 cells", "result": "significant decreases in the number of colonies formed and in the numbers of viable cells"}, {"measurement": "number of colonies and viable cells (MTT), SBC-5 cells, siRNA against EPHA7", "setting": "SBC-5 cells", "result": "significant decreases in the number of colonies formed and in the numbers of viable cells"}, {"measurement": "EPHA7 mRNA levels / EPHA7 expression", "setting": "EPHA7 [1]", "result": "significantly decreased"}]}, {"compound": "COc1cc2ncnc(Nc3cccc(Cl)c3)c2cc1OC", "note": "[AG1478]", "values": [{"measurement": "EPHA7 autophosphorylation", "setting": "EPHA7 [3]", "result": "did not inhibit EPHA7 autophosphorylation"}]}, {"compound": "CCn1cnc2c(Nc3cccc(Cl)c3)nc(N[C@@H]3CCCC[C@@H]3N)nc21", "note": "[CGP74514A]", "values": [{"measurement": "CDCA5 phosphorylation in mitosis (upper shifted bands)", "setting": "CDCA5 [4]; added with nocodazole 5 hours after release from G1/S phase", "result": "showed no upper shifted bands indicating that CDCA5 phosphorylation in mitosis was significantly inhibited"}, {"measurement": "stability of CDCA5 protein", "setting": "CDCA5 [4]; cells treated with CDC2 inhibitor (FIG. 19C)", "result": "seems to be unstable"}]}, {"compound": "Cc1[nH]c(/C=C2\\C(=O)Nc3ccc(S(=O)(=O)N(C)c4cccc(Cl)c4)cc32)c(C)c1C(=O)N1CCN(C)CC1", "note": "[SU11274]", "values": [{"measurement": "EPHA7 autophosphorylation", "setting": "EPHA7 [3]", "result": "did not inhibit EPHA7 autophosphorylation"}]}, {"compound": "N#CC(=C(/N)Sc1ccccc1N)/C(C#N)=C(\\N)Sc1ccccc1N", "note": "[U0126]", "values": [{"measurement": "levels of ERK phosphorylation", "setting": "ERK", "result": "reduced the levels of ERK phosphorylation"}, {"measurement": "signal of spot no. 2 of myc-tagged CDCA5, 2D-western-blotting", "setting": "CDCA5 [5]; Hela cells, EGF, U0126 treatment", "result": "reduced"}, {"measurement": "shifted spots with more acidic pI (spots no. 3 and 4) of myc-tagged CDCA5, 2D-western-blotting", "setting": "CDCA5 [5]; Hela cells, EGF, pre-incubation with U0126", "result": "significantly reduced"}, {"measurement": "upper shift of CDCA5 band (endogenous CDCA5 phosphorylation)", "setting": "CDCA5 [5]; serum-starved Hela cells, EGF stimulation with 10 μM U0126", "result": "completely inhibited the upper shift of CDCA5 band"}]}, {"compound": "O=C1Cc2c([nH]c3ccc([N+](=O)[O-])cc23)-c2ccccc2N1", "note": "[alsterpaullone]", "values": [{"measurement": "CDC2-inhibitory activity relative to CGP74514A", "setting": "CDCA5 [4]", "result": "lower compared with the other CDC2 inhibitor CGP74514A"}, {"measurement": "CDCA5 phosphorylation in mitosis", "setting": "CDCA5 [4]; 4 μM, with nocodazole 5 hours after release from G1/S phase", "result": "could strictly inhibit CDCA5 phosphorylation"}]}, {"compound": "C#Cc1cccc(Nc2ncnc3cc(OCCOC)c(OCCOC)cc23)c1", "note": "[erlotinib]", "values": [{"measurement": "median survival", "setting": "NSCLC; NSCLC patients, placebo 4.7 months (Shepherd et al. 2005)", "result": 6.7, "unit": "months"}]}, {"compound": "COc1cc2ncnc(Nc3ccc(F)c(Cl)c3)c2cc1OCCCN1CCOCC1", "note": "[gefitinib]", "values": [{"measurement": "clinical outcome", "setting": "NSCLC; NSCLC (Giaccone 2004; Baselga 2004)", "result": "superior response rate and symptom control"}]}]}
